# Measured values: US20180318197A1, “SOYASAPONIN-CONTAINING COMPOSITION FOR SKIN WHITENING” (AMOREPACIFIC CORPORATION, priority 2015, published 2018)
# How the values were obtained:
# [1] = target: T1, melanocyte-derived tyrosinase (melan-a cell extract) (Mus musculus, UniProt P11344); experiment: Cell extract tyrosinase inhibitory activity (DOPA to dopachrome colorimetric reaction); format: biochemical; conditions: pH 6.8, substrate DOPA, absorbance at 475 nm
# T1 construct: melan-a cell extract mixture; endogenous in cells; host or cells: melan-a cells (cell extract)
# T1 sequence (P11344 19-533): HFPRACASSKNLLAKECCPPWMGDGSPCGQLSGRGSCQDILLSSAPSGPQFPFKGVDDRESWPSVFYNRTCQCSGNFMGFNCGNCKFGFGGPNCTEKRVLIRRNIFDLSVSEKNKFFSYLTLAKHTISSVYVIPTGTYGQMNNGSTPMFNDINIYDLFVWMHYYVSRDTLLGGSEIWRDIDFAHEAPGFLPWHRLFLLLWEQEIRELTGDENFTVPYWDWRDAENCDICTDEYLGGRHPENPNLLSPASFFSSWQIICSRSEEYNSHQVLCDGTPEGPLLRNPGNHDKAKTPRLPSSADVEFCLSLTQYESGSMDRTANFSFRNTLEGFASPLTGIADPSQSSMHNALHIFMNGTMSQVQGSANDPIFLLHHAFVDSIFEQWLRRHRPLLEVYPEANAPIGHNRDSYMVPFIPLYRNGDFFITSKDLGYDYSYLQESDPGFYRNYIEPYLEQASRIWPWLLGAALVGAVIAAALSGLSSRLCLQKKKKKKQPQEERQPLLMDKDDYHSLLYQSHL
# Experimental: Tyrosinase is an important enzyme that regulates the first step that is performed to produce melanin in the process of pigmentation, and tyrosinase inhibitory activity is known to be an important efficacy mechanism for whitening. Therefore, in this test example, the ability of soyasaponin to inhibit the activity of tyrosinase was evaluated using a method for inhibiting the activity of cell extract tyrosinase. The method for evaluating the cell extract tyrosinase inhibitory activity is based on a phenomenon that melanocyte-derived tyrosinase causes a colorimeteric reaction by allowing substrate DOPA (3,4-dihydroxyphenylalanine; colorless) to form dopacrome (reddish brown).
# Specific experimental methods are as follows. Kojic acid as a positive control and soyasaponin Aa as an evaluation material were prepared by concentrating four times the concentration to be evaluated. Then, the reaction mixture (pH 6.8, 0.1M potassium phosphate buffer, melan-a cell extract mixture) was prepared in a 96 well plate. Since there may be colors depending on the evaluation material, a reaction mixture containing no cell extract liquid was made into a vehicle for background removal. […] Absorbance was measured at 475 nm using an ELISA reader (Synergy2, BioTek, USA) at intervals of 10 minutes until sufficient colorimeteric reaction had occurred.
# [2] = test system: Murine melanoma (B16) cells; experiment: Evaluation of the degree of melanin production inhibition in α-MSH-stimulated B16 cells; format: cell-based; conditions: B16 cells with α-MSH; 12.5, 25, 50 or 100 μM soyasaponin Aa; 3 days; absorbance at 490 nm
# Experimental: Murine melanoma (B16) cells purchased from the Korean Cell Line Bank were seeded into each well of a 12-well plate (5×10^4 cells/well) in DMEM (Dulbecco's modified eagle's medium) containing FBS (fetal calf serum) or a medium having growth rates equivalent to or higher than those in the DMEM. The cells were cultured at 37° C. with 5% CO2 until they reached about 80% confluency. After cultivation, the medium was removed and samples were replaced in medium diluted with 12.5, 25, 50 or 100 μM of soyasaponin Aa, or 100 ppm (corresponding to 700 μM) of kojic acid, and then cultured at 37° C. with 5% CO2 for 3 days. At this time, α-MSH (melanin stimulation hormone), which is a substance that allows B16 cells to better form melanin during cultivation, was included together in the medium of the other treatment groups except for the untreated control group. […] The concentration range of the samples was determined through toxicity tests. […] The obtained solution was measured for the absorbance at 490 nm using an ELISA reader (Synergy 2, BioTek. USA), and the amount of protein was determined by the Bradford assay, and then the amount of melanin per constant number of cells or the amount of melanin per constant amount of protein was estimated. […]
structure (smiles),measurement,setting,value
CC(=O)O[C@@H]1[C@@H](OC(C)=O)[C@H](O[C@@H]2[C@@H](O)[C@H](O[C@@H]3[C@H](O)C(C)(C)C[C@H]4C5=CC[C@@H]6[C@@]7(C)CC[C@H](O[C@@H]8O[C@H](C(=O)O)[C@@H](O)[C@H](O)[C@H]8O[C@@H]8O[C@H](CO)[C@H](O)[C@H](O)[C@H]8O[C@@H]8O[C@H](CO)[C@@H](O)[C@H](O)[C@H]8O)[C@](C)(CO)[C@@H]7CC[C@@]6(C)[C@]5(C)CC[C@@]34C)OC[C@@H]2O)OC[C@H]1OC(C)=O [soyasaponin Aa],activity of tyrosinase (FIG. 5),[1],effectively inhibited
same,synthesis of melanin (intracellular FIG. 3 and extracellular FIG. 4),[2],effectively inhibited
